The subject of data set [1] is wildtype mice. Description: FeCl3-induced injury in the carotid artery after infusion of corn trypsin inhibitor. In kind it is in vivo, mouse. How it is done:
(§1) Alternatively, to test the impact of small molecule FXII inhibitors, wildtype mice were infused with the FXII inhibitor corn trypsin inhibitor (CTI, 50 μg/g body weight) 5 min prior to FeCl3-induced injury in the carotic artery (Wang et al. (2005) J. Thromb. Heamost. 3: 695-702). […] In none of the animals tested (0/4) vessel occluding thrombi developed within 30 min following application of FeCl3.

In data set [2] the test system is intrinsic coagulation pathway. Kind of data set: aPTT of wildtype mice after infusion of corn trypsin inhibitor. In kind it is in vivo, mouse. The settings on record: CTI 50 μg/g body weight, n=4. How it is done:
as §1
Global and single coagulation parameters were determined with an automated blood coagulation system (BCS, Dade Behring) with Dade Behring reagents according to the protocols for human samples detailed by the manufacturer. Principles of BCS assay protocols are available from Dade Behring package inserts, which can be found on Dade Behring's web site (http://www.dadebehring.com). D-dimers werde measured with the ELISA from Asserachrorn (Roche). Peripheral blood counts were determines on the Sysmex XE 2100 according to standard protocols.

As for corn trypsin inhibitor [CTI], the “animals developing vessel occluding thrombi within 30 min following application of FeCl3” value in data set [1] (CTI 50 μg/g 5 min prior to injury, carotid artery) is given as 0/4. Moreover, the “bleeding during the surgical procedure” value in data set [1] (CTI 50 μg/g body weight) was “did not affect bleeding”. Further, in data set [2], the aPTT is 62 ± 11 s.
